Source: patent US20130178469A1, “NOVEL ANTIVIRAL AGENTS” (SHANGHAI INSTITUTE OF ORGANIC CHEMISTRY (SIOC), priority 2010, published 2013)
Where two headings read alike, the source gives them in different places.

Experiments:
[1] = tested on: HIV; test: Inhibition of HIV Replication (NL4-3), extracellular p24 in HuT-78 cells; type: cell-based
Protocol: HuT-78 cells are seeded into 96 well microtitre plates at 50,000 cells per […] per well in RF-10 containing 2 μg/mL polybrene (RF-10/2). Compounds are prepared to 4× final concentration in RF-10/2, and […] added to cells. Virus (40 μL in RF-10/2 containing 1600 pfu) is added to each well or […] RF-10/2 for negative controls and for assaying compound cytotoxicity. After 24 hrs, an additional 90 μL of media or media containing 1× compound is added to each well. At 4 days post infection, 100 μL of media is removed from each well and replaced with 100 μl of fresh media with or without compound. Forty eight hours later supernatants are harvested and levels of extracellular p24 determined. Supernatants are diluted 1 in 10,000 and p24 levels assayed using the Vironostika p24 assay kit. EC50 is calculated as the concentration required to inhibit HIV p24 production to 50% that of no drug controls.
In the tables below, this assay type is referred to as NL4-3.

[2] = tested on: HIV-1; test: Luciferase Assay with single-round reporter virus (NLXLuc or HIV-Luc); type: cell-based
Text: Infectivity assays using reporter viruses derived from lentiviral vectors capable of a single round of infection were used to determine the activity (EC50) of compounds. The DNA used to generate viruses for infection was the full-length HIV-1 genome which had been envelope-deleted. In addition, a reporter gene (the firefly luciferase gene from Photinus pyralis) was cloned into the nefregion of the HIV backbone for ease of assay readout. […]. Culture supernatants containing VSV-G pseudotyped virions were harvested 64 h post transfection, clarified by centrifugation to remove cell debris, and frozen at −70° C. until use.
293FT cells were plated out at 12000 cells per well in CellView 96-well cell culture plates (Invitrogen) 16 h prior to compound addition. Compounds were preincubated with cells for 4 h at 37° C. prior to the addition of virus sufficient to generate approximately 10000 Luciferase light units (as measured by the Victor Wallace luminometer) upon assaying using the Bright-Glo™ reagent (Promega) according to the manufacturer's instructions at 48 h post infection.
In the tables below, this assay is referred to as NLXLuc or HIV-Luc.

[3] = Human immunodeficiency virus 1, NL43, HuT78

Structure (SMILES)	EC50 [1, 3]	further results
CCOC(=O)NC1=CC(N2CCOCC2)=CN2C(=O)C(O)C(C(=O)NCc3ccc(F)cc3)=NC12 (centres unmarked) [Example 23.4, ethyl 2-(4-fluorobenzylcarbamoyl)-3-hydroxy-7-morpholino-4-oxo-4,9a-dihydro-3H-pyrido[1,2-a]pyrimidin-9-yl carbamate]	–	EC50 [1]: 1 to 10 nM
O=C(NCc1ccc(F)cc1)c1nc2c(N3CCCS3(=O)=O)cc(N3CCOCC3)cn2c(=O)c1O [Example 24.4, N-(4-fluorobenzyl)-9-(1,3-propanesultam)-3-hydroxy-7-morpholino-4-oxo-4H-pyrido[1,2-a]pyrimidine-2-carboxamide]	< 1 nM	EC50 ([2]; Human immunodeficiency virus 1): 10 to 20 nM
Cc1ccc2nc(C(=O)NCc3ccc(F)cc3)c(O)c(=O)n2c1 [drawing 183, reference compound]	100 to 1000 nM	–
CC(=O)N(C)c1cc(N2CCOCC2)cn2c(=O)c(O)c(C(=O)NCc3ccc(F)cc3)nc12 [Example 28.3, N-(4-fluorobenzyl)-3-hydroxy-9-(N-methylacetamido)-7-morpholino-4-oxo-4H-pyrido[1,2-a]pyrimidine-2-carboxamide]	1 to 10 nM	EC50 ([2]; Human immunodeficiency virus 1): 20 to 100 nM
O=C(NCc1ccc(Cl)c(Cl)c1)c1nc2c(N3CCOCC3)cc(N3CCOCC3)cn2c(=O)c1O [Example 22, N-(3,4-dichlorobenzyl)-3-hydroxy-7,9-dimorpholino-4-oxo-4H-pyrido[1,2-a]pyrimidine-2-carboxamide]	1 to 10 nM	–
O=C(NCc1ccc(Cl)c(Cl)c1)c1nc2c(N3CCCS3(=O)=O)cc(N3CCOCC3)cn2c(=O)c1O [Example 25, N-(3,4-dichlorobenzyl)-9-(1,3-propanesultam)-3-hydroxy-7-morpholino-4-oxo-4H-pyrido[1,2-a]pyrimidine-2-carboxamide]	< 1 nM	EC50 ([2]; Human immunodeficiency virus 1, HEK-293T): < 1 nM
O=C(NCc1ccc(F)cc1)c1nc2ccc(Br)cn2c(=O)c1O [reference compound]	100 to 1000 nM	–
CC(=O)Nc1cc(N2CCOCC2)cn2c(=O)c(O)c(C(=O)NCc3ccc(F)cc3)nc12 [Example 26.5, 9-acetamido-N-(4-fluorobenzyl)-3-hydroxy-7-morpholino-4-oxo-4H-pyrido[1,2-a]pyrimidine-2-carboxamide]	20 to 100 nM	–
